Assay results reported in patent publication US7612064B2, “Sulfopyrroles” (Takeda Pharmaceutical Company Limited, priority 2003, dated 2009).

Key:
HeLa = assay: MTS proliferation assay; type: cell-based, human; details: 72 h
Experimental: (§1) The assay is performed in 96 well tissue culture plates. […] The test compounds are added in 20 μl complete medium containing max 5% DMSO. The final compound concentrations in the assays are 10 μM, 3 μM, 1 μM and 0.3 μM, respectively. The assay plates are incubated for 72 h at culture conditions. The MTS reagent is prepared according to the manufacturer's protocol (Promega G1111). 20 μl MTS reagent are added to each well, the assay plates are quickly spun and incubated for another 3 h at culture conditions. Subsequently, the plates are shortly shacked and absorption measured with a microplate-reader at 492 nm.

Jurkat = assay: MTS proliferation assay; type: cell-based, human; details: 72 h
Experimental: as §1

MRC5 = assay: MTS proliferation assay; type: cell-based; details: MRC5, 72 h
Experimental: as §1

[1] = Hoechst 33342 nuclear staining; type: cell-based; details: 24 h or 48 h incubation; for Hoechst 33342 nuclear staining score, HeLa: HeLa cells; for Hoechst 33342 nuclear staining score, Jurkat: Jurkat cells;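 as to all read-outs here: apoptotic nuclei scored 0 none 1 weak under 50% of cells 2 strong over 50% of cells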
Experimental: This assay is performed in 96 well tissue culture plates. Appropriate number of cells (adherent cells: 3-5*10^3, suspension cells: 8-10*10^3) are being seeded out in 80 μl complete medium. Adherent cells are incubated for 24 h for proper spreading out before addition of test compounds while suspension cells are immediately treated with test compounds after seeding out. The test compounds are added in 20 μl complete medium containing max 5% DMSO. […] […] The assay plates are then further incubated for 30 min and subsequently analyzed with a standard inverted fluorescence microscope.
The readout allows the determination of the fraction of apoptotic nuclei as well as other morphological criteria specific for apoptosis as a function of the treatment. The following scores are used: 0 relating to no activity, 1 relating to weak activity comprising less than 50% of the cells and score 2 relating to strong activity comprising more than 50% of the cells.

[2] = conc 0.1 (final concentrations in μM)
[3] = conc 0.3 (final concentrations in μM)
[4] = conc 1 (final concentrations in μM)
[5] = conc 3 (final concentrations in μM)
[6] = conc 10 (final concentrations in μM)

Structure (SMILES) | IC50 (HeLa) | IC50 (Jurkat) | IC50 (MRC5) | Hoechst 33342 nuclear staining score, HeLa [1, 2] | Hoechst 33342 nuclear staining score, HeLa [1, 3] | Hoechst 33342 nuclear staining score, HeLa [1, 4] | Hoechst 33342 nuclear staining score, HeLa [1, 5] | Hoechst 33342 nuclear staining score, Jurkat [1, 2] | Hoechst 33342 nuclear staining score, Jurkat [1, 3] | Hoechst 33342 nuclear staining score, Jurkat [1, 4] | Hoechst 33342 nuclear staining score, Jurkat [1, 5] | Hoechst 33342 nuclear staining score, HeLa [1, 6] | Hoechst 33342 nuclear staining score, Jurkat [1, 6] | IC50 (HeLa; Homo sapiens) | IC50 (Jurkat; Homo sapiens) | IC50 (MRC5; Homo sapiens)
Cc1ccc(S(=O)(=O)n2cc(CN(C)CCN(C)C)cc2-c2ccc3c(c2)OCO3)cc1 [Example 31] | > 1000 nM | > 1000 nM | > 1000 nM | 0 | 0 | 0 | 0 | 0 | 0 | 0 | 0 |  |  |  |  | 
Cc1ccc(S(=O)(=O)n2cc(-c3cccnc3)cc2-c2ccc3c(c2)OCO3)cc1 [Example 49] | > 1000 nM | > 1000 nM | > 1000 nM | 0 | 0 | 0 | 0 | 0 | 0 | 0 | 0 |  |  |  |  | 
Cc1ccc(S(=O)(=O)n2cc(CNc3ccc(-n4ccnc4)cc3)cc2-c2ccc3c(c2)OCO3)cc1 [Example 40] | > 1000 nM | > 1000 nM | > 1000 nM |  | 0 | 0 | 0 |  | 0 | 0 | 0 | 0 | 0 |  |  | 
Cc1ccc(S(=O)(=O)n2cc(CNC(CN3CCN(C)CC3)c3ccccc3)cc2-c2ccc3c(c2)OCO3)cc1 (centres unmarked) [Example 24] |  | > 1000 nM | > 1000 nM | 0 | 0 | 0 | 0 | 0 | 0 | 0 | 0 |  |  |  |  | 
NC(=O)c1ccc(-c2cc(-c3ccc4c(c3)OCO4)n(S(=O)(=O)c3cccc(Cl)c3)c2)cc1 [Example 5, p-(1-[m-chlorobenzenesulfonyl]-2-[3,4-methylenedioxyphenyl]-4pyrrolyl)-benzamide] |  |  |  |  |  |  |  |  |  |  |  |  |  | > 1000 nM | > 1000 nM | > 1000 nM
COc1cc(-c2cc(CNCCCN3CCN(C)CC3)cn2S(=O)(=O)c2ccc(C)cc2)cc(OC)c1OC [Example 3] | > 1000 nM | > 1000 nM | > 1000 nM |  |  |  |  |  |  |  |  |  |  |  |  | 
CN1CCN(CCCNCc2cc(-c3ccc4c(c3)OCO4)n(S(=O)(=O)c3cccc(Cl)c3)c2)CC1 [Example 4, 1-(m-Chlorobenzenesulfonyl)-2-(3,4-methylenedioxyphenyl)-4-(N-[3-{4-methylpiperazinyl}-propyl]-aminomethyl)-pyrrole] | > 1000 nM | > 1000 nM | > 1000 nM |  |  |  |  |  |  |  |  |  |  |  |  | 
Cc1ccc(S(=O)(=O)n2cc(-c3ccc(C(N)=O)cc3)cc2-c2ccc3c(c2)OCO3)cc1 [Example 47] | > 1000 nM | > 1000 nM |  | 0 | 0 | 2 (strong activity comprising more than 50% of the cells) | 2 (strong activity comprising more than 50% of the cells) | 0 | 0 | 0 | 0 |  |  |  |  | 
